Assay results as given in patent US20100267561A1, “HERBICIDAL PYRIDAZINONE DERIVATIVES” (priority 2007, published 2010).

Columns and labels:
Experiment in all cases: Test B pre-/postemergence plant response
Format in all cases: in vivo
[1] = test system: bermudagrass (Cynodon dactylon); details: for Plant response rating, Bermudagrass: Postemergence
Summary of the method: (§1)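 Visual scoring from 0 (no effect) to 100 (complete control) against untreated controls was done 13 to 15 days after greenhouse treatment. Chemicals were formulated in a surfactant-containing non-phytotoxic solvent and applied to soil preemergence or to 1- to 4-leaf (2-18 cm) plants postemergence.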

[2] = test system: blackgrass (Alopecurus myosuroides); details: for Plant response rating, Blackgrass: Postemergence
Summary of the method: as §1

[3] = test system: corn (Zea mays); details: for Plant response rating, Corn: Postemergence
Summary of the method: as §1

[4] = test system: downy bromegrass (Bromus tectorum); details: for Plant response rating, Bromegrass, Downy: Postemergence
Summary of the method: as §1

[5] = test system: giant foxtail (Setaria faberii); details: for Plant response rating, Foxtail, Giant: Postemergence
Summary of the method: as §1

[6] = test system: green foxtail (Setaria viridis); details: for Plant response rating, Foxtail, Green: Postemergence
Summary of the method: as §1

[7] = test system: lambsquarters (Chenopodium album); details: for Lambsquarters plant response rating: postemergence, 0-100 scale; for Plant response rating, Lambsquarters: Postemergence
Summary of the method: as §1

[8] = test system: large crabgrass (Digitaria sanguinalis); details: for Plant response rating, Crabgrass, Large: Postemergence
Summary of the method: as §1

[9] = test system: morningglory (Ipomoea coccinea); details: for Morningglory plant response rating: postemergence, 0-100 scale; for Plant response rating, Morningglory: Postemergence
Summary of the method: as §1

[10] = test system: velvetleaf (Abutilon theophrasti); details: for Velvetleaf plant response rating: postemergence, 0-100 scale; for Plant response rating, Velvetleaf: Postemergence
Summary of the method: as §1

[11] = test system: wheat (Triticum aestivum); details: for Wheat plant response rating: postemergence, 0-100 scale; for Plant response rating, Wheat: Postemergence
Summary of the method: as §1

[12] = test system: wild oat (Avena fatua); details: for Oat, Wild plant response rating: postemergence, 0-100 scale; for Plant response rating, Oat, Wild: Postemergence
Summary of the method: as §1

[13] = 8 g ai/ha, postemergence, 0-100 scale
[14] = 62 g ai/ha, scale 0 to 100, 0 no effect, 100 complete control

SMILES: COCc1cc(-c2ccc(Br)cc2)nn1-c1c(O)cnn(C)c1=O [Compound 68]
- Bermudagrass plant response rating [1, 13]: 0
- Plant response rating, Bermudagrass ([1]; 16 g ai/ha, scale 0 to 100): 0
- Plant response rating, Bermudagrass ([1]; 31 g ai/ha, scale 0 to 100): 0
- Plant response rating, Bermudagrass [1, 14]: 0
- Blackgrass plant response rating [2, 13]: 0
- Plant response rating, Blackgrass ([2]; 16 g ai/ha, scale 0 to 100): 0
- Plant response rating, Blackgrass ([2]; 31 g ai/ha, scale 0 to 100): 50
- Plant response rating, Blackgrass [2, 14]: 85
- Corn plant response rating [3, 13]: 0
- Plant response rating, Corn ([3]; 16 g ai/ha, scale 0 to 100): 0
- Plant response rating, Corn ([3]; 31 g ai/ha, scale 0 to 100): 30
- Plant response rating, Corn [3, 14]: 95
- Bromegrass, Downy plant response rating [4, 13]: 0
- Plant response rating, Bromegrass, Downy ([4]; 16 g ai/ha, scale 0 to 100): 0
- Plant response rating, Bromegrass, Downy ([4]; 31 g ai/ha, scale 0 to 100): 0
- Plant response rating, Bromegrass, Downy [4, 14]: 0
- Foxtail, Giant plant response rating [5, 13]: 10
- Plant response rating, Foxtail, Giant ([5]; 16 g ai/ha, scale 0 to 100): 60
- Plant response rating, Foxtail, Giant ([5]; 31 g ai/ha, scale 0 to 100): 65
- Plant response rating, Foxtail, Giant [5, 14]: 90
- Foxtail, Green plant response rating [6, 13]: 10
- Plant response rating, Foxtail, Green ([6]; 16 g ai/ha, scale 0 to 100): 50
- Plant response rating, Foxtail, Green ([6]; 31 g ai/ha, scale 0 to 100): 60
- Plant response rating, Foxtail, Green [6, 14]: 95
- Lambsquarters plant response rating ([7]; 8 g ai/ha): 0
- Lambsquarters plant response rating ([7]; 16 g ai/ha): 0
- Plant response rating, Lambsquarters ([7]; 31 g ai/ha, scale 0 to 100): 0
- Plant response rating, Lambsquarters [7, 14]: 0
- Crabgrass, Large plant response rating [8, 13]: 20
- Plant response rating, Crabgrass, Large ([8]; 16 g ai/ha, scale 0 to 100): 60
- Plant response rating, Crabgrass, Large ([8]; 31 g ai/ha, scale 0 to 100): 80
- Plant response rating, Crabgrass, Large [8, 14]: 85
- Morningglory plant response rating ([9]; 8 g ai/ha): 0
- Morningglory plant response rating ([9]; 16 g ai/ha): 0
- Plant response rating, Morningglory ([9]; 31 g ai/ha, scale 0 to 100): 0
- Plant response rating, Morningglory [9, 14]: 0
- Velvetleaf plant response rating ([10]; 8 g ai/ha): 0
- Velvetleaf plant response rating ([10]; 16 g ai/ha): 0
- Plant response rating, Velvetleaf ([10]; 31 g ai/ha, scale 0 to 100): 0
- Plant response rating, Velvetleaf [10, 14]: 0
- Wheat plant response rating ([11]; 8 g ai/ha): 0
- Wheat plant response rating ([11]; 16 g ai/ha): 0
- Plant response rating, Wheat ([11]; 31 g ai/ha, scale 0 to 100): 0
- Plant response rating, Wheat [11, 14]: 0
- Oat, Wild plant response rating ([12]; 8 g ai/ha): 0
- Oat, Wild plant response rating ([12]; 16 g ai/ha): 0
- Plant response rating, Oat, Wild ([12]; 31 g ai/ha, scale 0 to 100): 5
- Plant response rating, Oat, Wild [12, 14]: 40
